Experiment [1] relates to Erwinia carotovora. Description: Preventive action on potatoes against Erwinia carotovora (field trial). The experiment is classed as in vivo. The conditions noted are these: under the trial conditions (potato field trial); assumed, not tested alone. The source says:
(§1) The visually determined percentages of infected leaf areas were converted into efficacies in % of the untreated control:
(§2) An efficacy of 0 means that the infection level of the treated plants corresponds to that of the untreated control plants; an efficacy of 100 means that the treated plants were not infected.

For experiment [2], the system named is Xathomonas ssp. Description: Preventive action on tomatoes against Xathomonas ssp (field trial). The following applies: under the trial conditions (tomato field trial); assumed, not tested alone. Format: in vivo. How it is done:
The active compounds used were applied as commercially available formulations.
as §1
The efficacy (E) is calculated as follows using Abbot's formula: […]
α corresponds to the fungal infection of the treated plants in % and β corresponds to the fungal infection of the untreated (control) plants in %
as §2
The trial was conducted under field conditions. Tomato plants of variety Carmen at a height of app. 10 cm were planted and grown under standard conditions with adequate supply of water and nutrients. After 18 days a first application of active compounds was made, which was repeated five times every 5 to 8 days. No other compounds were applied for pathogen control. Infection with pathogens occurred. Each treatment consisted of four replicants in a randomized block design. The disease incidences were evaluated 46 days after the first application (Xathomonas ssp.).

Consider `[Cl-].[Cu+2].[Cu+2].[OH-].[OH-].[OH-]` [copper, copper oxychloride], for which, in experiment [1], the “efficacy against Erwinia carotovora” value was “very close to zero”. In experiment [2], the “efficacy against Xathomonas” value was “very close to zero”.
